Reference: paper PMC6009935 (Journal of Enzyme Inhibition and Medicinal Chemistry, 2017)
Like-named read-outs stand apart in the source and are kept apart here.

What was measured:
[1] = molecular target: T1, cannabinoid receptors (CBR) (Rattus norvegicus, UniProt P20272); assay: biochemical; assay type: binding
T1 construct: a: performed in rat whole brain membrane homogenates; from tissue; host or cells: Wistar rat whole brain membrane homogenate
Protocol: Tris-HCl, EGTA, NaCl, MgCl2 x 6H2O, GDP, the GTP analogue GTPγS, were purchased from Sigma-Aldrich (Budapest, Hungary). Fatty acid free bovine serum albumin (BSA) was purchased from Serva (Heidelberg, Germany). Naloxone was kindly provided by the company Endo Laboratories DuPont de Nemours (Wilmington, DE, USA). HS665 was provided by Schmidhammer’s group (University of Innsbruck, Austria). […]
purchased from Tocris Bioscience (Bristol, UK).
DMSO. All compounds were stored in 1 mM stock solution at -20 °C. The radiolabelled GTP analogue, [35S]GTPγS (specific activity: 1000 Ci/mmol) were purchased from Hartmann Analytic (Braunschweig, Germany). [3H]DAMGO (specific activity: 38.8 Ci/mmol),12 [3H]IleDelt II (specific activity: 19,6 Ci/mmol), [3H]WIN55,212-2 (specific activity: 13,1 Ci/mmol) and [3H]HS665 (specific activity: 36.62 Ci/mmol),3 were radiolabeled by the Laboratory of Chemical Biology group in BRC (Szeged, Hungary).
For membrane homogenate preparations male and female Wistar rats (250-300 g body weight) and male guinea pigs (~700 g body weight, LAL/HA/BR strain) were used. Rats were housed in the local animal house of BRC (Szeged, Hungary), while guinea pigs were housed in LAB-ÁLL Bt.
(Budapest, Hungary). All the animals were kept in a temperature controlled room (21-24 °C) under a 12:12 light and dark cycle and were provided with water and food ad libitum. All housing and experiments were conducted in accordance with the European Communities Council Directives (2010/63/EU) and the Hungarian Act for the Protection of Animals in Research (XXVIII.tv. 32.§).
The total number of animals as well as their suffering was minimized.
Rat and guinea pig brain membrane homogenate preparation for binding assays Rats and guinea pigs were decapitated and their brains were quickly removed. The brains were prepared for membrane preparation as previously described,4 and partly used for binding experiments and partly were further prepared for the [35S]GTPγS binding experiments. Briefly the brains were homogenized, centrifuged in ice-cold 50 mM Tris-HCl (pH 7.4) buffer and incubated at 37 °C for 30 min in a shaking water-bath. After incubation the centrifugation was repeated as described above and the final pellet was suspended in 50 mM Tris-HCl pH 7.4 buffer containing 0.32 M sucrose, and stored at -80 °C. For the [35S]GTPγS binding experiments the final pellet of rat […]
brain membrane homogenate was suspended in ice-cold TEM (Tris-HCl, EGTA, MgCl2) and stored at -80 °C for further use.
Radioligand competition binding experiments
Aliquots of frozen rat brain membrane homogenates were centrifuged (18 000 rpm, 20 min, 4 °C) to remove sucrose and the pellets were suspended in 50 mM Tris-HCl buffer (pH 7.4). Membranes containing 0.4-0.8 mg/mL of protein were incubated in a final volume of 1 mL in the presence of unlabeled 5, 10 and 9 in increasing concentrations (10-11-10-5 M) in the presence of the appropriate radioligand in ~1 nM concentrations at certain temperature and amount of time depending on the radioligand ([3H]DAMGO and [3H]IleDelt II: 35 °C for 45 min; [3H]HS665: 30 °C, 45 min; [3H]WIN55,212-2: 30 °C for 60 min). Experiments performed with [3H]HS665 where incubated […]
more kappa receptors than the rat brain), while the rest of the radioligands were incubated together with rat whole brain membrane homogenates. Additionally, in experiments performed with […]
increasing concentrations (10-11-10-5 M) together with 50 mM Tris/HCl, 2.5 mM EGTA, 5 mM MgCl2 and 0.5 mg/mL fatty acid free BSA (pH 7.4). The level of non-specific binding was […]
binding was determined in the absence of unlabeled compounds. The reaction was terminated by rapid filtration under vacuum (Brandel M24R Cell Harvester), and washed three times with 5 mL ice-cold 50 mM Tris-HCl or 50 mM Tris/HCl, 2.5 mM EGTA, 5 mM MgCl2, 0.5 % BSA (pH 7.4) in case of [3H]WIN55,212-2. The filtration was accomplished through Whatman GF/C ([3H]DAMGO, [3H]IleDelt II and [3H]HS665) or GF/B ([3H]WIN55,212-2) glass fibers. In case of […]

G-protein = assay: Functional [35S]GTPγS binding assay on rat brain membrane homogenates; assay type: biochemical; conditions: rat brain membrane homogenates; for Emax ± S.E.M. (maximal G-protein efficacy): basal activity = 100%; for LogEC50 ± S.E.M. (ligand potency): logarithm of EC50, negative sign printed
Protocol: The experiments were performed by [35S]GTPγS binding assays to control the GDP to GTP exchange of the α-subunit of Gi-protein. […] We examined the opioid receptor binding affinity of 5 in competition binding experiments, using opioid receptor selective radioligands. […]
Functional [35S]GTPγS binding experiments
The functional [35S]GTPγS binding experiments were performed as previously described,5,6 with modifications. Briefly the rat brain membrane homogenates containing ~10 µg/mL protein were incubated at 30 °C for 60 min in Tris-EGTA buffer (pH 7.4) composed of 50 mM Tris-HCl, 1 mM EGTA, 3 mM MgCl2, 100 mM NaCl, containing 20 MBq/0.05 cm3 [35S]GTPγS (0.05 nM) and […]
compound 9 together with excess GDP (30 µM) in a final volume of 1 mL. Total binding was measured in the absence of test compounds, non-specific binding was determined in the presence of 10 µM unlabelled GTPγS. The bound and unbound [35S]GTPγS was separated as described in the […]
competition binding assays section through Whatmann GF/B glass fibers. The radioactivity of the filters was also detected as described above. [35S]GTPγS binding experiments were performed in triplicates and repeated at least three times.
The specific binding of all radiolabeled compounds was calculated by the subtraction of non-specific binding from total binding and was given in percentage. The data was normalized to total specific binding, which was settled 100%, which in case of [35S]GTPγS also represents the basal activity of the G-protein. Experimental data were presented as means ± S.E.M in the function of the applied ligand concentration range in logarithm form. Points were fitted with the professional curve fitting program, GraphPad Prism 5.0 (GraphPad Prism Software Inc., San Diego, CA), using non-linear regression. In the radioligand competition binding assays the ‘One-site competition’, while in [35S]GTPγS binding assays the ‘Sigmoid dose-response’ equation was applied to determine IC50 (unlabeled ligand affinity) and the maximum G-protein efficacy (Emax) and ligand potency (EC50), respectively. For IC50 and EC50 values standard error is only given in their logarithm form by the curve fitting program due to the data representation. In competition binding experiments the Ki value was calculated according to Cheng-Prusoff equation.7 […]
binding assays. In figure B, 5 is indicated again for better comparison. Figures represents the specific binding of [35S]GTPγS in percentage in the presence of increasing concentrations (10-10-10-5 M) of the indicated ligands in rat brain membrane homogenates. “Basal” on the x-axis indicates the basal activity of the monitored G-protein, which is measured in the absence of the compounds and also represents the total specific binding of [35S]GTPγS. The level of basal activity was defined as 100% and is presented with a dotted line. Points represent means ± S.E.M. for at least three experiments performed in triplicate.

[2] = rat whole brain membrane homogenates, Cheng-Prusoff, read-out: Ki, [3H]WIN55,212 (CBR)
[3] = rat whole brain membrane homogenates, logarithm of IC50, negative sign printed, read-out: logIC50 ± S.E.M., [3H]WIN55,212 (CBR) (converted)

T1 sequence (P20272 whole entry): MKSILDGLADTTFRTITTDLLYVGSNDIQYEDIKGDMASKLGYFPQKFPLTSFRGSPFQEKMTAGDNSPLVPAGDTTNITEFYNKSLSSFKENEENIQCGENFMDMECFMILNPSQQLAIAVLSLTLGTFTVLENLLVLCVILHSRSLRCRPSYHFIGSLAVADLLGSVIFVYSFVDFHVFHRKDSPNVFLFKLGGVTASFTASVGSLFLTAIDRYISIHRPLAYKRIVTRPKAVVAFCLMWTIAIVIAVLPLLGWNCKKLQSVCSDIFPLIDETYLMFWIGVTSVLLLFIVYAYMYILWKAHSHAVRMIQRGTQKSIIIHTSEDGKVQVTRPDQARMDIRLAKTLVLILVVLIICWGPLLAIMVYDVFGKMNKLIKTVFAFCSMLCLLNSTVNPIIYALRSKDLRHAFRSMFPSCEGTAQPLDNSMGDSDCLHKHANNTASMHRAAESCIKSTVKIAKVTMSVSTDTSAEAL

Compound	Ki [1, 2]	IC50 [1, 3]	EC50 (G-protein)	Emax ± S.E.M. (maximal G-protein efficacy) (G-protein)	LogEC50 ± S.E.M. (ligand potency) (G-protein)	IC50 [1]	Ki [1]
Cc1c(C(=O)N2CCN(C(=O)OCc3ccccc3)CC2)nn(-c2ccc(Cl)cc2Cl)c1-n1cccc1 [Compound 2]	710 nM	1100 nM	1540 nM	22.95 ± 4.3%	−5.81 ± 0.09	–	–
Cc1c(C(=O)NN2CCCCC2)nn(-c2ccc(Cl)cc2Cl)c1-c1ccc(Cl)cc1 [Rimonabant, reference compound]	–	–	2200 nM	17.5 ± 5.72%	−5.65 ± 0.12	–	–
Cc1c(C(=O)NC2CCCCC2)nn(-c2ccc(Cl)cc2Cl)c1-n1cccc1 [Compound 4]	–	–	1870 nM	55.95 ± 8.44%	−5.72 ± 0.3	575 nM	370 nM
Cc1c(C(=O)NC2CCN(C(=O)OC(C)(C)C)CC2)nn(-c2ccc(Cl)cc2Cl)c1-n1cccc1 [Compound 3]	193 nM	295 nM	2690 nM	12.78 ± 8.48%	−5.57 ± 0.15	–	–
Cc1c(C(=O)NN2CCCCC2)nn(-c2ccc(Cl)cc2Cl)c1-n1cccc1 [Compound 1]	–	–	1620 nM	26 ± 5.27%	−5.78 ± 0.11	195 nM	126 nM
